In ChEMBL document CHEMBL1201862, “PubChem BioAssay data set” (2004):
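Each compound was tested at five concentrations against cells in 96-well plates for 48 hours. Abbreviation: GI50, concentration required for 50% inhibition of growth.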 The source made the active and inactive calls. No stated cut-off is given here; in the data, active = GI50 up to about 1.1 µM and inactive = higher.

Tests used:
Experiment in all cases: NCI tumour cell line growth inhibition, 48 h
[1] = test system: HL-60
[2] = test system: CCRF-CEM
[3] = test system: OVCAR-5
[4] = test system: TK-10
[5] = test system: SF-539
[6] = test system: UACC-62
[7] = test system: HOP-92
[8] = test system: ACHN
[9] = test system: SR
[10] = test system: RPMI-8226
[11] = test system: M14
[12] = test system: K562
[13] = test system: HOP-62
[14] = test system: NCI-H460
[15] = test system: SF-268
[16] = test system: SN12C

| Structure (SMILES) | GI50 [1] | GI50 [2] | GI50 [3] | GI50 [4] | GI50 [5] | GI50 [6] | GI50 [7] | GI50 [8] | GI50 [9] | GI50 [10] | GI50 [11] | GI50 [12] | GI50 [13] | GI50 [14] | GI50 [15] | GI50 [16] |
| --- | --- | --- | --- | --- | --- | --- | --- | --- | --- | --- | --- | --- | --- | --- | --- | --- |
| CN(C)Cc1[nH]c2ccccc2c1C(=O)c1ccccc1 | 86.9 µM (inactive) | > 100 µM (inactive) | > 100 µM (inactive) | > 100 µM (inactive) | > 100 µM (inactive) | > 100 µM (inactive) | 33 µM (inactive) | > 100 µM (inactive) | 88.3 µM (inactive) | 66.2 µM (inactive) | > 100 µM (inactive) | 91.6 µM (inactive) | 33 µM (inactive) | > 100 µM (inactive) | > 100 µM (inactive) | – |
| CC1=NN(C(=O)Cc2ccccc2)C(=O)/C1=C\c1cccc(O)c1 | > 100 µM (inactive) | > 100 µM (inactive) | > 100 µM (inactive) | > 100 µM (inactive) | > 100 µM (inactive) | – | – | > 100 µM (inactive) | > 100 µM (inactive) | > 100 µM (inactive) | > 100 µM (inactive) | > 100 µM (inactive) | > 100 µM (inactive) | > 100 µM (inactive) | > 100 µM (inactive) | > 100 µM (inactive) |
| Cc1cc(Cl)ccc1N1C(=O)C(=O)C(c2nc3ccccc3s2)C(=O)C1=O | > 100 µM (inactive) | > 100 µM (inactive) | > 100 µM (inactive) | > 100 µM (inactive) | > 100 µM (inactive) | > 100 µM (inactive) | > 100 µM (inactive) | > 100 µM (inactive) | > 100 µM (inactive) | > 100 µM (inactive) | > 100 µM (inactive) | > 100 µM (inactive) | > 100 µM (inactive) | > 100 µM (inactive) | > 100 µM (inactive) | > 100 µM (inactive) |
| COc1ccc(/C=C2\C(=O)N(C(=O)c3ccc(NC(C)=O)cc3)N=C2C)cc1 | > 100 µM (inactive) | > 100 µM (inactive) | > 100 µM (inactive) | > 100 µM (inactive) | > 100 µM (inactive) | – | – | > 100 µM (inactive) | > 100 µM (inactive) | > 100 µM (inactive) | > 100 µM (inactive) | > 100 µM (inactive) | > 100 µM (inactive) | > 100 µM (inactive) | > 100 µM (inactive) | > 100 µM (inactive) |
| Cn1c(=O)c(C(=O)NC(=O)OCc2ccccc2)cn(CCSCCOC(=O)NCCCCCCNC(=O)OCCSCCn2cc(C(=O)NC(=O)OCc3ccccc3)c(=O)n(C)c2=O)c1=O | > 100 µM (inactive) | > 100 µM (inactive) | > 100 µM (inactive) | > 100 µM (inactive) | 32.5 µM (inactive) | > 100 µM (inactive) | 23.2 µM (inactive) | > 100 µM (inactive) | – | > 100 µM (inactive) | > 100 µM (inactive) | > 100 µM (inactive) | 36.7 µM (inactive) | > 100 µM (inactive) | 84.9 µM (inactive) | > 100 µM (inactive) |
| Cn1nc(-c2ccccc2)c2c(/C=C/c3ccc(Cl)cc3)onc2c1=O | – | 27.7 µM (inactive) | – | 33 µM (inactive) | 22.6 µM (inactive) | 35.8 µM (inactive) | 21.7 µM (inactive) | 8.57 µM (inactive) | – | 31.8 µM (inactive) | > 100 µM (inactive) | 40.8 µM (inactive) | – | > 100 µM (inactive) | > 100 µM (inactive) | 17.1 µM (inactive) |
| CSc1nc(NC2OC(COC(C)=O)C(OC(C)=O)C(OC(C)=O)C2OC(C)=O)c2c(OC(C)=O)c(C)c(=O)oc2n1 (stereo not drawn) | > 100 µM (inactive) | > 100 µM (inactive) | > 100 µM (inactive) | > 100 µM (inactive) | > 100 µM (inactive) | > 100 µM (inactive) | > 100 µM (inactive) | > 100 µM (inactive) | – | > 100 µM (inactive) | > 100 µM (inactive) | > 100 µM (inactive) | > 100 µM (inactive) | > 100 µM (inactive) | – | > 100 µM (inactive) |
| CC1(Br)C(=O)NC(=O)N([C@H]2C[C@H](O)[C@@H](CO)O2)C1N=[N+]=[N-] (stereo partly drawn) | > 100 µM (inactive) | > 100 µM (inactive) | > 76.2 µM (inactive) | > 100 µM (inactive) | > 100 µM (inactive) | > 100 µM (inactive) | > 100 µM (inactive) | > 100 µM (inactive) | > 100 µM (inactive) | > 100 µM (inactive) | > 100 µM (inactive) | > 100 µM (inactive) | > 100 µM (inactive) | > 100 µM (inactive) | > 100 µM (inactive) | > 100 µM (inactive) |
| C/C(=N\NC(=O)CC(=O)N(C(=O)c1ccc(Cl)cc1)c1ccc(C)cc1)c1ccccc1O | – | 5.45 µM (inactive) | > 100 µM (inactive) | 17.6 µM (inactive) | 43.4 µM (inactive) | > 100 µM (inactive) | – | 45.6 µM (inactive) | – | > 100 µM (inactive) | 81.7 µM (inactive) | > 100 µM (inactive) | 37 µM (inactive) | 21.4 µM (inactive) | 28.1 µM (inactive) | > 100 µM (inactive) |
| NC1=NN(c2ccccc2)C(=O)C1C(=O)C(=O)NC1C2CC3CC(C2)CC1C3 (stereo not drawn) | > 100 µM (inactive) | > 100 µM (inactive) | > 100 µM (inactive) | > 100 µM (inactive) | > 100 µM (inactive) | > 100 µM (inactive) | > 100 µM (inactive) | > 100 µM (inactive) | > 100 µM (inactive) | – | > 100 µM (inactive) | > 100 µM (inactive) | > 100 µM (inactive) | > 100 µM (inactive) | > 100 µM (inactive) | > 100 µM (inactive) |
| O=C(NO)c1ccc([N+](=O)[O-])cc1 | 20.7 µM (inactive) | 26 µM (inactive) | – | 37.3 µM (inactive) | 24.5 µM (inactive) | 19.7 µM (inactive) | – | – | – | 27.2 µM (inactive) | 40.9 µM (inactive) | 31 µM (inactive) | 29.3 µM (inactive) | 50.2 µM (inactive) | > 100 µM (inactive) | 94.2 µM (inactive) |
| O=[PH](O)c1cccnc1 | > 100 µM (inactive) | > 100 µM (inactive) | > 100 µM (inactive) | > 100 µM (inactive) | > 100 µM (inactive) | > 100 µM (inactive) | > 100 µM (inactive) | > 100 µM (inactive) | > 100 µM (inactive) | > 100 µM (inactive) | > 100 µM (inactive) | > 100 µM (inactive) | > 100 µM (inactive) | > 100 µM (inactive) | > 100 µM (inactive) | > 100 µM (inactive) |
| COC(=O)C12OCC34C(CC5C(C)C6=CC(=O)OC6=CC5(C)C3C(O)C1O)OC(=O)C(OC(C)=O)C24 (stereo not drawn) | 12.1 µM (inactive) | 6.37 µM (inactive) | 23.1 µM (inactive) | 17.4 µM (inactive) | 15.2 µM (inactive) | 12.9 µM (inactive) | 16.9 µM (inactive) | 15.7 µM (inactive) | 18.3 µM (inactive) | 12.1 µM (inactive) | 14.3 µM (inactive) | 14.7 µM (inactive) | 25.8 µM (inactive) | 21.3 µM (inactive) | 17 µM (inactive) | 17.1 µM (inactive) |
| Cc1ccc(N2C(=O)C(Cl)=C(Cl)C2=O)cc1 | – | 5.11 µM (inactive) | 18 µM (inactive) | – | 25.2 µM (inactive) | > 10 µM (inactive) | 18.2 µM (inactive) | 19.6 µM (inactive) | 21.3 µM (inactive) | 18.8 µM (inactive) | 19.2 µM (inactive) | 18.7 µM (inactive) | 30.1 µM (inactive) | > 100 µM (inactive) | 17.9 µM (inactive) | 18.7 µM (inactive) |
| CN1CC[C@]2(C)c3c(O)cccc3CC3CCCC1C32C (stereo partly drawn) | 96.2 µM (inactive) | > 100 µM (inactive) | > 100 µM (inactive) | > 100 µM (inactive) | > 100 µM (inactive) | > 100 µM (inactive) | 89.7 µM (inactive) | > 100 µM (inactive) | > 100 µM (inactive) | > 100 µM (inactive) | > 100 µM (inactive) | 91.6 µM (inactive) | > 100 µM (inactive) | > 100 µM (inactive) | > 100 µM (inactive) | > 100 µM (inactive) |
| O=c1c(-c2ccccc2)c2oc(c1-c1ccccc1)CS(=O)(=O)CCC2 | 25.6 µM (inactive) | 23.8 µM (inactive) | – | 37.5 µM (inactive) | 18.2 µM (inactive) | 21.5 µM (inactive) | > 100 µM (inactive) | 29 µM (inactive) | 23.3 µM (inactive) | 26.9 µM (inactive) | – | 31.1 µM (inactive) | 42.6 µM (inactive) | 31.6 µM (inactive) | 21.9 µM (inactive) | 16.9 µM (inactive) |
| COc1cc(/C=C(\NC(=O)c2ccccc2)c2nc3ccc4c(c3[nH]2)C(=O)c2ccccc2C4=O)cc(OC)c1OC | – | 0.687 µM (active) | > 100 µM (inactive) | 29.2 µM (inactive) | 20.1 µM (inactive) | 38.1 µM (inactive) | 25.4 µM (inactive) | – | – | 2.92 µM (inactive) | 63.1 µM (inactive) | 28 µM (inactive) | > 100 µM (inactive) | – | 8.91 µM (inactive) | 32.5 µM (inactive) |
| COc1cc(C(C)O)c[n+](CCc2c[nH]c3ccccc23)c1 (stereo not drawn) | > 100 µM (inactive) | > 100 µM (inactive) | – | > 100 µM (inactive) | > 100 µM (inactive) | > 100 µM (inactive) | – | > 100 µM (inactive) | > 100 µM (inactive) | > 100 µM (inactive) | > 100 µM (inactive) | > 100 µM (inactive) | > 100 µM (inactive) | > 100 µM (inactive) | 27.1 µM (inactive) | > 100 µM (inactive) |
